# System: 699152-130-R-J1-PDC complex spheroid viability
# Assay: Anticancer human tumor 699152-130-R-J1-PDC patient-derived pancreatic carcinoma cell line growth inhibition [POLQ]
# Conditions: for IC50: curve of first compound; for viability, T/C: stronger effect = lower value
# Method: Multicellular complex tumor spheroid response to Polymerase (POL) inhibitors (novobiocin, ART-558, RP6685) in combination with a variety of drugs and investigational agents in selected tumor cell lines
# The POL inhibitors (novobiocin, ART-558, and RP6685) were evaluated both individually and in combination with standard of care and investigational anticancer small molecules within a complex spheroid model of solid tumors. . Complex spheroids include a stromal component modeled by human endothelial cells (HUVEC) and fibroblasts modeled by human mesenchymal stem cells (MSCs). The concentration ranges selected for each drug and investigational agent were based upon clinically achievable concentrations if the clinical Cmax of the agent was known.
# Compounds. The drugs and investigational agents: novobiocin (NSC847541), ART-558 (NSC835418), RP-6685 (NSC848927), peposertib (NSC802822), ceralasertib (NSC780249), elimusertib (NSC800525), camonsertib (NSC841442), AZD-1390 (NSC803789), olaparib (NSC753686), talazoparib (NSC767125), rucaparib (NSC756644), sotorasib (NSC818433), MRTX-1133 (NSC836407), SN-38 (NSC673596), topotecan (NSC609699), epotoside (NSC141540), doxorubicin (NSC123127), gemcitabine (NSC613327), 5-fluorouracil (NSC19893), paclitaxel (NSC125973), vemurafenib (NSC761431), MSA-2 (NSC828583), SN-011 (NSC837082), adavosertib (NSC754352), prexasertib (NSC758257), carboplatin (NSC241240) and oxaliplatin (NSC266046), were obtained from the National Cancer Institute (NCI) Developmental Therapeutics Program Chemical Repository (21). The FDA-approved anticancer drug set is available from the Developmental Therapeutics Program at https://dtp.cancer.gov/organization/dscb/obtaining/. […] The stock solutions were prepared in dimethyl sulfoxide (DMSO, Sigma-Aldrich, St. Louis, MO, cat. D2650), except for the platinum compounds which were prepared in saline (Quality Biological, Gaithersburg, MD, cat. 114-055-101), at 800-fold the tested concentration and stored at -70 degrees C prior to their use. All drugs and investigational agents were tested over a range starting from a high concentration at or near the clinical Cmax and decreasing in half-log increments. If the clinical Cmax for an agent had not been determined, the highest concentration tested was 10 microM, except for SN-38, which was tested at a high concentration of 1 microM.
# Cell Culture. All cells were maintained in an incubator at 37 degrees C and 5% CO2 with 95% humidity. The PDC lines were cultured according to standard operating procedures established by the NCI PDMR (https://pdmr.cancer.gov). Table 3 of the manuscript, lists the cell lines along with the number of the three cell types plated to form the mct-spheroids and media for tumor cell growth. After thawing, all PDC lines, except 997537-175-T-J1-PDC and 415267-285-R-J2-PDC, were cultured in Matrigel-coated flasks prepared with a working solution of 1X Ham's F-12 nutrient mix, without supplementation (Thermo Fisher Scientific, cat. 11765054), 100 U/mL penicillin-streptomycin (Thermo Fisher Scientific, cat. 15140122), and 2.5% Matrigel (Corning Inc., Corning, NY, cat. 354248) for the first three passages. The two PDC lines 997537-175-T-J1-PDC and 415267-285-R-J2-PDC were cultured on uncoated flasks. The 857933-349-R-J2-PDC line was cultured in 6C/Colon 1B media containing advanced DMEM/F-12 (Thermo Fisher Scientific, cat. 12634028), 10 mM HEPES (Thermo Fisher Scientific, cat. 15630080), 1X GlutaMAX supplement (Thermo Fisher Scientific, cat. 35050061), 0.1 mg/mL primocin (InvivoGen, San Diego, CA, cat. ant-pm-2), 10% defined fetal bovine serum, heat inactivated (HyClone Laboratories Inc., Logan, UT, cat. SH30070.03HI), 50% L-WRN conditioned media (ATCC, cat. CRL-3276), 1.25 mM N-Acetyl-L-cysteine (Sigma-Aldrich, cat. A9165), 10 mM nicotinamide (Sigma-Aldrich, cat. N0636), 1X B-27 supplement (Thermo Fisher Scientific, cat. 17504044), 1X N-2 supplement (Thermo Fisher Scientific, cat. […]
# [1] = second compound 0.0316 µM, first compound 0.0316 µM
# [2] = second compound 0.0316 µM, first compound 0.1 µM
# [3] = second compound 0.0316 µM, first compound 0.316 µM
# [4] = second compound 0.0316 µM, first compound 1 µM
# [5] = second compound 0.0316 µM, first compound 3.16 µM
# [6] = second compound 0.0316 µM, first compound 10 µM
# [7] = second compound 0.1 µM, first compound 0.0316 µM
# [8] = second compound 0.1 µM, first compound 0.1 µM
# [9] = second compound 0.1 µM, first compound 0.316 µM
# [10] = second compound 0.1 µM, first compound 1 µM
# [11] = second compound 0.1 µM, first compound 3.16 µM
# [12] = second compound 0.1 µM, first compound 10 µM
# [13] = second compound 0.316 µM, first compound 0.0316 µM
# [14] = second compound 0.316 µM, first compound 0.1 µM
# [15] = second compound 0.316 µM, first compound 0.316 µM
# [16] = second compound 0.316 µM, first compound 1 µM
# [17] = second compound 0.316 µM, first compound 3.16 µM
# [18] = second compound 0.316 µM, first compound 10 µM
# [19] = second compound 1 µM, first compound 0.0316 µM
# [20] = second compound 1 µM, first compound 0.1 µM
# [21] = second compound 1 µM, first compound 0.316 µM
# [22] = second compound 1 µM, first compound 1 µM
# [23] = second compound 1 µM, first compound 3.16 µM
# [24] = second compound 1 µM, first compound 10 µM
# [25] = second compound 3.16 µM, first compound 0.0316 µM
# [26] = second compound 3.16 µM, first compound 0.1 µM
# [27] = second compound 3.16 µM, first compound 0.316 µM
# [28] = second compound 3.16 µM, first compound 1 µM
# [29] = second compound 3.16 µM, first compound 3.16 µM
# [30] = second compound 3.16 µM, first compound 10 µM
# [31] = second compound 10 µM, first compound 0.0316 µM
# [32] = second compound 10 µM, first compound 0.1 µM
# [33] = second compound 10 µM, first compound 0.316 µM
# [34] = second compound 10 µM, first compound 1 µM
# [35] = second compound 10 µM, first compound 3.16 µM
# [36] = second compound 10 µM, first compound 10 µM
# 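Further: spheroids exposed to agents for 7 days before viability reading.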
# 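Wherever viability, T/C is given: percent of DMSO vehicle control viability so 100% = vehicle and 0% = no viable signal.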
smiles,measurement,setting,value
CC1COCCN1c1cc(-c2ccnn2C)c2ccnc(-c3ccn[nH]3)c2n1 (centres undefined) + Cc1cccc(N(C)C(=O)C2C(O)CCN2c2nc(C)cc(C(F)(F)F)c2C#N)c1,IC50,second compound 0.0316 µM,2330 nM
same,IC50,second compound 0.1 µM,> 10000 nM
same,IC50,second compound 0.316 µM,3970 nM
same,IC50,second compound 1 µM,5140 nM
same,IC50,second compound 3.16 µM,> 10000 nM
same,IC50,second compound 10 µM,> 10000 nM
same,"viability, T/C",[1],98.3%
same,"viability, T/C",[2],99.1%
same,"viability, T/C",[3],74.4%
same,"viability, T/C",[4],58%
same,"viability, T/C",[5],47.8%
same,"viability, T/C",[6],45.4%
same,"viability, T/C",[7],93.9%
same,"viability, T/C",[8],90.3%
same,"viability, T/C",[9],75.2%
same,"viability, T/C",[10],59.4%
same,"viability, T/C",[11],62.2%
same,"viability, T/C",[12],56.1%
same,"viability, T/C",[13],92.2%
same,"viability, T/C",[14],86.8%
same,"viability, T/C",[15],75.5%
same,"viability, T/C",[16],58.6%
same,"viability, T/C",[17],46.3%
same,"viability, T/C",[18],51.8%
same,"viability, T/C",[19],107%
same,"viability, T/C",[20],89%
same,"viability, T/C",[21],70.9%
same,"viability, T/C",[22],59%
same,"viability, T/C",[23],50.2%
same,"viability, T/C",[24],48.8%
same,"viability, T/C",[25],109%
same,"viability, T/C",[26],108%
same,"viability, T/C",[27],69.4%
same,"viability, T/C",[28],55.2%
same,"viability, T/C",[29],51.1%
same,"viability, T/C",[30],51.3%
same,"viability, T/C",[31],94.7%
same,"viability, T/C",[32],86.5%
same,"viability, T/C",[33],75.8%
same,"viability, T/C",[34],65.4%
same,"viability, T/C",[35],52.6%
same,"viability, T/C",[36],53.8%
C#Cc1c(F)ccc2cc(O)cc(-c3ncc4c(N5CC6CCC(C5)N6)nc(OCC56CCCN5CC(F)C6)nc4c3F)c12 (centres undefined) + Nc1ccc(C#CCN(C(=O)Cc2ncc(C(F)(F)F)cc2C(F)(F)F)c2ccc(F)cc2)nn1,IC50,second compound 0.0316 µM,< 31.6 nM
same,IC50,second compound 0.1 µM,< 31.6 nM
same,IC50,second compound 0.316 µM,< 31.6 nM
same,IC50,second compound 1 µM,< 31.6 nM
same,IC50,second compound 3.16 µM,< 31.6 nM
same,IC50,second compound 10 µM,< 31.6 nM
same,"viability, T/C",[1],26%
same,"viability, T/C",[2],18.8%
same,"viability, T/C",[3],14.6%
same,"viability, T/C",[4],12.1%
same,"viability, T/C",[5],14.2%
same,"viability, T/C",[6],11.9%
same,"viability, T/C",[7],25.1%
same,"viability, T/C",[8],21.8%
same,"viability, T/C",[9],15.4%
same,"viability, T/C",[10],13.7%
same,"viability, T/C",[11],13.3%
same,"viability, T/C",[12],13.2%
same,"viability, T/C",[13],24%
same,"viability, T/C",[14],16.3%
same,"viability, T/C",[15],18.9%
same,"viability, T/C",[16],12.3%
same,"viability, T/C",[17],12.4%
same,"viability, T/C",[18],12.1%
same,"viability, T/C",[19],18.8%
same,"viability, T/C",[20],18.8%
same,"viability, T/C",[21],13.5%
same,"viability, T/C",[22],12.8%
same,"viability, T/C",[23],12.8%
same,"viability, T/C",[24],12.4%
same,"viability, T/C",[25],21.6%
same,"viability, T/C",[26],16.9%
same,"viability, T/C",[27],13%
same,"viability, T/C",[28],13.3%
same,"viability, T/C",[29],11.8%
same,"viability, T/C",[30],14.2%
same,"viability, T/C",[31],32.2%
same,"viability, T/C",[32],18.8%
same,"viability, T/C",[33],14.3%
same,"viability, T/C",[34],14.6%
same,"viability, T/C",[35],13.5%
same,"viability, T/C",[36],11.5%

# Reference: PubChem BioAssay AID1963835 (Molecular Pharmacology Branch, DTP, NCI, 2024)
